Experimental data taken from a compilation of properties of binary mixtures (doi:10.1016/j.fluid.2020.112621).

Assay: xn = mol fraction of the nth substance listed
Conditions: 101 kPa

CC(=O)O.CC(=O)[O-].CC[NH+](CC)CCO + CCCC[n+]1ccn(C)c1.COP(=O)([O-])OC
viscosity [mPa·s]
Conditions | x1 = 0.0748 | x1 = 0.3316 | x1 = 0.4263 | x1 = 0.5275 | x1 = 0.6343 | x1 = 0.7493 | x1 = 0.8567 | x1 = 1
278.15 K | 2020 | – | 363 | – | 329 | 314 | 310 | 340
283.15 K | 1280.5 | 315 | 254.3 | 234.7 | 229 | – | 210 | 227
288.15 K | 840 | 224.3 | 183.7 | – | 164 | 157.9 | 146.3 | 156.1
293.15 K | – | 164.3 | 135.3 | 124 | 120.6 | – | 104.7 | 110.4
298.15 K | 396 | 123.7 | 102.2 | – | – | 88 | – | 80.2
303.15 K | – | 95.2 | 79 | 72.4 | 70.3 | 67.9 | 57.8 | –
308.15 K | 208 | – | 62.2 | 57 | 55.2 | – | 44.3 | 45.3
313.15 K | 155.8 | 58.3 | 48.55 | – | – | 41.14 | 34.65 | 35.12
318.15 K | 119.1 | 48.01 | 40.43 | 36.97 | 35.71 | 34.54 | – | 27.71
323.15 K | 92.7 | 39.18 | 33.11 | – | – | 28.27 | – | 22.22
328.15 K | – | 32.29 | – | 25.04 | 24.08 | – | 18.26 | 18.08
333.15 K | 58.8 | 24.59 | 20.72 | 18.82 | – | – | 15.16 | 14.9
338.15 K | – | 22.48 | 19.2 | 17.53 | 16.79 | 16.24 | 12.72 | 12.45
343.15 K | 39.38 | 18.97 | 16.24 | 14.82 | 14.16 | – | 10.79 | 10.49
348.15 K | 32.81 | 16.13 | 13.83 | 12.6 | – | 11.59 | 9.24 | –
353.15 K | 27.63 | 12.97 | 11.07 | 10.04 | 9.54 | 9.16 | 7.98 | 7.67
358.15 K | 23.49 | 11.89 | 10.22 | – | 8.82 | 8.46 | – | –
363.15 K | 20.16 | 10.32 | 8.87 | 8.06 | 7.63 | 7.29 | 6.09 | –
368.15 K | 17.45 | 9.01 | 7.75 | – | – | 6.33 | 5.37 | 5.09
373.15 K | 15.23 | 7.79 | 6.7 | 6.06 | 5.71 | 5.43 | 4.76 | 4.5

CCCC(=O)[O-].CC[NH+](CC)CCO + CCCC[n+]1ccn(C)c1.COP(=O)([O-])OC
viscosity [mPa·s]
Conditions | x1 = 0.1023 | x1 = 0.1989 | x1 = 0.3026 | x1 = 0.3985 | x1 = 0.498 | x1 = 0.6001 | x1 = 0.6613 | x1 = 0.8006 | x1 = 0.8788 | x1 = 1
278.15 K | 2058 | 1152.2 | 671 | 445 | 322.4 | 255.2 | 231 | – | 191 | –
283.15 K | 1309.9 | 764 | 459 | 311.5 | 228.5 | – | 165.4 | 140.9 | 136.5 | –
288.15 K | – | 522 | 322.9 | 223.4 | 165.9 | 133.2 | – | 103.2 | 99.6 | 96.9
293.15 K | 587 | 367 | 233 | – | – | – | 90.5 | 77.1 | – | 71.6
298.15 K | 411 | – | 172.1 | 122.9 | 93.3 | 75.8 | 69 | 58.8 | 56.4 | 54
303.15 K | 294.9 | – | 129.8 | 94 | 72 | – | 53.58 | 45.58 | 43.6 | 41.42
308.15 K | 216.6 | 146.7 | 99.8 | – | 56.55 | 46.34 | 42.29 | 35.94 | 34.28 | 32.34
313.15 K | 162.7 | 112.5 | – | 57.98 | – | 37.1 | – | 28.77 | 27.36 | 25.64
318.15 K | – | 87.9 | 61.99 | 46.61 | 36.5 | – | 27.53 | – | 22.14 | 20.63
323.15 K | 96.9 | – | 49.98 | 37.99 | 29.93 | 24.77 | – | 19.2 | 18.14 | 16.82
328.15 K | 76.7 | 56.15 | 40.85 | 31.37 | 24.84 | – | 18.87 | 15.97 | 15.04 | 13.87
333.15 K | 61.58 | 45.81 | 33.8 | 26.18 | 20.85 | 17.35 | 15.88 | 13.42 | 12.6 | 11.56
338.15 K | 50.11 | 37.83 | 28.27 | 22.09 | 17.68 | 14.74 | – | – | 10.66 | –
343.15 K | 41.29 | – | 23.89 | – | 15.13 | – | 11.56 | 9.74 | 9.09 | 8.27
348.15 K | 34.41 | 26.65 | 20.38 | 16.18 | – | 10.92 | 9.99 | 8.41 | 7.82 | 7.08
353.15 K | 28.99 | 22.7 | – | 14.02 | 11.35 | 9.51 | 8.69 | – | – | –
358.15 K | 24.65 | 19.51 | 15.22 | – | 9.95 | 8.33 | – | 6.39 | 5.92 | –
363.15 K | 21.15 | 16.9 | 13.3 | 10.76 | 8.77 | 7.36 | 6.72 | 5.63 | 5.2 | 4.65
368.15 K | 18.3 | 14.76 | – | 9.52 | 7.78 | 6.53 | 5.97 | 4.99 | 4.6 | –
373.15 K | 15.96 | 12.97 | 10.37 | 8.47 | 6.95 | 5.84 | 5.33 | 4.45 | 4.08 | 3.61
